This is an account of results in patent publication US8575376B2, “Steroide anionic compounds, method of their production, usage and pharmaceutical preparation involving them” (Ustav Organicke Chemie A Biochemie Akademie Ved Ceske …, priority 2009, dated 2013).

The structures appear in SMILES notation.

What all share (format): in vivo, rat
Assay [1] has as its system rats. Description: Histochemical analysis (FluoroJadeB) after bilateral NMDA-induced hippocampal lesion. The following applies: 1 mg/kg i.p. As for the experimental part: Animals were divided into four groups consisting of two series. First group of animals received an application of NMDA (intrahipocampally, i.h.) and compound from Example 9 (1 mg/kg, i.p.). Second group received NMDA i.h. and cyclodextrine i.p., third group obtained saline i.h. and cyclodextrin i.p. Forth group was applied with sterile saline i.h. and compound from Example 9 at a dose 1 mg/kg, i.p. Six animals from each group was sacrificed and perfused at intervals of 1-4 days after experimental manipulation.
Animals were deeply anesthetized by isoflurane (3.5%, driven by air) and fixed in the stereotaxic apparatus. Small drills were made in the skull and subsequently microinjection of NMDA (1 μl, […] NMDA in saline; pH adjusted to 7.2 by calcium dihydrogenphosphate) into both hippocampi was pursued. Coordinates of application (AP=4, L=2.5, DV=4) were localized with stereotaxic atlas (Paxinos and Watson, 2005) and verified in histological controls. Rats were again placed in soft recovery boxes after surgery and carefully monitored after surgery.
Application of compound from Example 9 was done according to experimental scheme either 30 min prior to and after NMDA application (in first series of experiments) or 30 min after lesion in the second series. Animals were perfused on days 1-4 after lesion, their brains were fixed with paraformaldehyde and sacharose solution. The brains were subsequently frozen to −70° C., and thin brain slices were prepared on cryomicrotome, stained and analyzed under light microscope.

Assay [2] has as its system Long-Evans rats. Description: AAPA task after bilateral NMDA excitotoxic lesion of the hippocampus. The procedure:
Neuroprotective action of 3α-substituted derivatives of pregnanolone was tested in the well-established model represented by excitotoxic bilateral lesion of the hippocampus with NMDA, an agonist of NMDA receptors. This model represents a widely-accepted paradigm of excitotoxicity induced experimental disruption of memory functions in laboratory rodents. The model also mimics into some extent the excessive action of glutamate on cells in the hippocampus, which contains abundance of NMDA receptors. The effect of lesions and possible neuroprotective action can be observed at various intervals after treatment both on the histological and behavioral level, provided that a suitable hippocampus-dependent memory task is available. In our studies, we have used a hippocampus-dependent spatial task AAPA (see above), which requires spatial and executive abilities and involves so-called “cognitive coordination” (Wesierska et al., 2005). Again, all manipulations with animals conformed to current legislation and Institutional recommendations on animal care and were approved by ethical-care committee.
In this phase of experiment, we have studied the effect of compound from Example 9 (and relation of this effect to dose) on NMDA excitotoxic hippocampal lesion after various intervals from lesioning. 150 adult male Long-Evans rats (250-350 g) were used in the study. Rats were housed in transparent plastic cages (25×25×40 cm) in air-conditioned animal room with 12/12 h dark/light rhythmicity. All rats had free access to food and water throughout the study.
During surgery, animals were deeply anesthetized by isoflurane inhalation anesthesia (3.5%, driven by air). Initial sedation was pursued in initiation chamber filled with diethyl ether vapor. During whole anesthesia, vital functions of animals were precisely monitored by the person pursuing surgery. After fixation in the stereotaxic apparatus (Kopf Instruments) the skull was exposed and small trephine openings were drilled with micro driller and subsequently, 1 ul of NMDA solution ([…] NMDA in saline buffered with calcium dihydrogenphosphate to pH=7.2) was microinjected into both dorsal hippocampi. The stereotaxic coordinates (AP=4; L=±2.5; DV=4) were measured from a rigorous atlas (Paxinos and Watson, 2005) and later verified from histological examination. Rats were then placed into soft post-surgery boxes. […] Doses of compound from Example 9 were: 0.01 mg/kg, 0.1 mg/kg and 10 mg/kg of b.w. In control groups and lesion-only groups, we applied only saline and NMDA, respectively. Solution of compound from Example 9 (0.01 mg/2 ml, 0.1 mg/2 ml or 10 mg/2 ml dissolved in cyclodextrin) was applied s.c. at a volume of 2 ml/kg.
Prior to behavioral observations, animals were left for 7 days to recover after surgery. After this recovery period, two days (each consisting of two sessions) of AAPA training were conducted. Each rat was initially placed onto rotating (1 rpm) circular arena containing a to-be-avoided sector (60°), fixed in the coordinate frame of the room (Stuchlik et al., 2008). Upon entrance into the prohibited sector, rat was punished by a mild electric footshock (˜0.3 mA] delivered from low-impedance subcutaneous wire to contact between rats paws and grounded floor (with highest voltage drop in rats feet). Rats wore a latex harness on their backs, holding an infrared light-emitting diode (LED), which was sampled by TV camera mounted above the arena and connected to a computer digitizing system (iTrack, Biosignal Group, USA). The shock sector is not directly perceptible for animals and its location can be determined solely by its relationships with distal room landmarks. […] The task is highly dependent upon hippocampus, with unilateral inactivation of this structure leading to avoidance deficit (Cimadevilla et al., 2001). This was the reason why we have selected this task for NMDA-induced impairment and detection of putative neuroprotective action of our compound (Example 9). […]

Assay [3] deals with rats. Description: Elevated plus maze (anxiety). As for the experimental part:
The effect of i.p. administration of compound from example 9 in doses of 0.001, 0.01, and 10 mg/kg on behaviour in elevated plus maze was evaluated. The number of entrances into open arms and the total time spent in open arms were assessed.
The apparatus consisted of two opposite open arms (45 cm×10 cm) crossed at right angles with two opposite arms of the same size enclosed by walls 40 cm high, except for the central part where the arms crossed. The whole apparatus was elevated 50 cm above the floor.

Where [4] appears, read: 10 mg/kg s.c., 30 min prior to and after lesion, or 120 min after lesion.

As to `CC(=O)[C@H]1CC[C@H]2[C@@H]3CC[C@@H]4C[C@H](OC(=O)[C@@H](N)CCC(=O)O)CC[C@]4(C)[C@H]3CC[C@]12C` [Example 9, 20-Oxo-5β-pregnan-3α-yl L-glutamyl 1-ester], in assay [1], the “NMDA-induced damage in caudatoputamen and thalamic nuclei (histology)” value is on record as “Alleviation, but not elimination of damage”. Moreover, in assay [1], the “NMDA-induced damage in neocortex (histology)” value was “pronounced cessation of damage in the whole neocortex”. In addition, the “NMDA-induced damage to the hippocampus (histology)” value in assay [1] (dentate gyrus, Cornu ammonis fields, subiculum) was “significant decrease of NMDA-induced damage to the hippocampus”. The “number of entrances in AAPA after NMDA lesion” value in assay [2] (0.01 mg/kg s.c., 30 min after lesion) is reported as “improved the subsequent performance in the AAPA task”; in assay [2] (0.01 mg/kg s.c., 30 min prior to and after lesion), “the alleviation was not significant”; in assay [2] (0.01 mg/kg s.c., longer intervals from the lesion), “exerted no effect after longer intervals from the lesion”; in assay [2] (0.1 mg/kg s.c., 30 min after lesion) it was “non-significantly improved the behavioral performance”; in assay [2] (setting [4]), “significant protective effect against hippocampal lesion”; in assay [2] (10 mg/kg s.c., other delays), “No improvement was seen at other delays”. Further, the “maximum time avoided in AAPA after NMDA lesion” value in assay [2] (0.01 mg/kg s.c., 30 min after lesion, or 30 min prior to and after lesion) is “had beneficial effect in lesioned animals”; in assay [2] (0.1 mg/kg s.c.), “tended to alleviate the performance of rats compared to lesioned animals without treatment”; in assay [2] (setting [4]), “caused a significant improvement of rat performance”. Besides, in assay [3] (0.001, 0.01 and 10 mg/kg i.p.), the “anxiolytic effect in elevated plus maze” value is “pronounced dose-dependent anxiolytic effect”. Further, in assay [3] (10 mg/kg i.p., p<0.05 vs control), the “number of entries into open arms” value is on record as “significant increase of number of entries into open arms”.
